Test results as given in ChEMBL document CHEMBL1909046, “DrugMatrix in vitro pharmacology data”.
pIC50, pKi: −log10 of the molar value.

Legend:
[1] = DRUGMATRIX: Sigma2 radioligand binding (ligand: [3H] Ifenprodil); assay type: cell membranes, Rattus norvegicus, Wistar, Brain, Membrane; details: Not Active = under 50% inhibition at 10 µM
[2] = DRUGMATRIX: Phosphodiesterase PDE4 enzyme inhibition (substrate: [3H]cAMP + cAMP); details: u-937; Not Active = under 50% inhibition at 10 µM
[3] = biological target: Sigma non-opioid intracellular receptor 1 (Homo sapiens, UniProt Q99720); assay: DRUGMATRIX: Sigma1 radioligand binding (ligand: [3H] Haloperidol); assay type: cell membranes, Jurkat, Membrane; details: jurkat; Not Active = under 50% inhibition at 10 µM
Sigma non-opioid intracellular receptor 1, sequence (Q99720 whole entry): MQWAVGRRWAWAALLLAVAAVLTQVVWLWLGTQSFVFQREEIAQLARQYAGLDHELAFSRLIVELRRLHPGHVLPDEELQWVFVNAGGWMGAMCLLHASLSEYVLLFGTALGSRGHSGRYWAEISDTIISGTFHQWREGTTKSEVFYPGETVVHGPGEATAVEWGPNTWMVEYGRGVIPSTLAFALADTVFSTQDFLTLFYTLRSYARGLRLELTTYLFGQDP

Substance-K receptor = biological target: T1, Substance-K receptor (Homo sapiens, UniProt P21452); assay type: cell membranes, CHO, Membrane; details: cho; also: in other assays of this panel Not Active means under 50% inhibition at 10 µM
T1 sequence (P21452 whole entry): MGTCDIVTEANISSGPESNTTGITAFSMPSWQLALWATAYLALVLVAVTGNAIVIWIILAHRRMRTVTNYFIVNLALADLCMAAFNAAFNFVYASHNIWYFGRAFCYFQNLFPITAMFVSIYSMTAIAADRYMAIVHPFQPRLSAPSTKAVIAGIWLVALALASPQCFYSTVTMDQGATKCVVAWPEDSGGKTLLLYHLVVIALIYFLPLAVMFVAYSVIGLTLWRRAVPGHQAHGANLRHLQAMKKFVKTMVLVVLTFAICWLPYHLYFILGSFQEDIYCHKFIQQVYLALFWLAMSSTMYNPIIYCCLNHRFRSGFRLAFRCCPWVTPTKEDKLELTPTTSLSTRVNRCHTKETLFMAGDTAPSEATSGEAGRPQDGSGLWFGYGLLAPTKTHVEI

Glycine receptor = Glycine receptor (Rattus norvegicus, UniProt P22771+P24524+P07727+P20781); assay type: cell membranes, Wistar, Spinal cord, Membrane; also: in other assays of this panel Not Active means under 50% inhibition at 10 µM
[4] = DRUGMATRIX: Purinergic P2X radioligand binding (ligand: [3H] alpha, beta-Methylene-ATP); assay type: cell membranes, Oryctolagus cuniculus, New Zealand albino, Urinary bladder, Membrane; details: Not Active = under 50% inhibition at 10 µM
[5] = DRUGMATRIX: Calcium Channel Type L, Benzothiazepine radioligand binding (ligand: [3H] Diltiazem); assay type: cell membranes, Rattus norvegicus, Wistar, Brain, Membrane; details: Not Active = under 50% inhibition at 10 µM
[6] = biological target: T2, Polyunsaturated fatty acid lipoxygenase ALOX15 (Oryctolagus cuniculus, UniProt P12530); assay: biochemical; assay type: tissue-based, Reticulocytes; details: reticulocytes;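 also: inhibition of 15-lipoxygenase enzyme activity measured with linoleic acid as the substrate; in other assays of this panel Not Active means under 50% inhibition at 10 µM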
T2 sequence (P12530 whole entry): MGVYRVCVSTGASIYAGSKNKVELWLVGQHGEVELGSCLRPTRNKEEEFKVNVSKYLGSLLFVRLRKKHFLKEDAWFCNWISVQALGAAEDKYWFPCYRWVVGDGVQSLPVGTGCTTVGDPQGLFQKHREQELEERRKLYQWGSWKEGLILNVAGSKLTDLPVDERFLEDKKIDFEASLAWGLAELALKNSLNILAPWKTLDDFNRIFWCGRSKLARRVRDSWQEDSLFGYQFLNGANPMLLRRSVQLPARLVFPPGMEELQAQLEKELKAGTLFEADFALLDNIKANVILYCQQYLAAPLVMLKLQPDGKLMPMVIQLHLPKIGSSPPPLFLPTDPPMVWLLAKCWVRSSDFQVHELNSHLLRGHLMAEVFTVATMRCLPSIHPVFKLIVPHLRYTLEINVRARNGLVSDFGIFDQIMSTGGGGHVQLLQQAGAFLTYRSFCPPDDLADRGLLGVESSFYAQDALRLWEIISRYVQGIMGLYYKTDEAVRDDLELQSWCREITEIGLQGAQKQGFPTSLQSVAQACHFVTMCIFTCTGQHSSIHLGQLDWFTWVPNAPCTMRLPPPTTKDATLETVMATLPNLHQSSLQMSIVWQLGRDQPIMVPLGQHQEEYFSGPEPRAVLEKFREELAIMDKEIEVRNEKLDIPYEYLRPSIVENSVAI

[7] = DRUGMATRIX: Phosphodiesterase PDE3 enzyme inhibition (substrate: [3H]cAMP + cAMP); assay type: tissue-based, Homo sapiens; details: platelet; Not Active = under 50% inhibition at 10 µM
[8] = biological target: Tyrosine-protein kinase Lck (Homo sapiens, UniProt P06239); assay: DRUGMATRIX: Protein Tyrosine Kinase, LCK enzyme inhibition (substrate: Poly(Glu:Tyr)); assay type: cell-based, Insect cells; details: insect cells; Not Active = under 50% inhibition at 10 µM
Tyrosine-protein kinase Lck, sequence (P06239 whole entry): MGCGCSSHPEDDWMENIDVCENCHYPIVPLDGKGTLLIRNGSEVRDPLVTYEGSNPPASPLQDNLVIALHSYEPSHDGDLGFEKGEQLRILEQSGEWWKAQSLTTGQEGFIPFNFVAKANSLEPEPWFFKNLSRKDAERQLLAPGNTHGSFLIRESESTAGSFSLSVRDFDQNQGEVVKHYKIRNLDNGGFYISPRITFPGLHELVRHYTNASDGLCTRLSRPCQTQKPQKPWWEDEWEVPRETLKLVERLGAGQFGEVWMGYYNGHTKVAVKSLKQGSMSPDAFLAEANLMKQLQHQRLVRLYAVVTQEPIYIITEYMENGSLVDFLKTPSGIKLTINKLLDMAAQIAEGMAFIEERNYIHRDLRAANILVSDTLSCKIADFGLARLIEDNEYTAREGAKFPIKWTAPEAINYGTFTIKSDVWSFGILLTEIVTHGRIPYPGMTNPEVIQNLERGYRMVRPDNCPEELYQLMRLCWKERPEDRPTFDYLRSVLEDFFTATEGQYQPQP

[9] = DRUGMATRIX: Calcium Channel Type L, Phenylalkylamine radioligand binding (ligand: [3H] (-)-Desmethoxyverapamil (D-888)); assay type: cell membranes, Rattus norvegicus, Wistar, Brain, Membrane; details: Not Active = under 50% inhibition at 10 µM
[10] = biological target: 5-hydroxytryptamine receptor 6 (Homo sapiens, UniProt P50406); assay type: cell membranes, HeLa, Membrane; details: for IC50: hela; as to all read-outs here: in other assays of this panel Not Active means under 50% inhibition at 10 µM
5-hydroxytryptamine receptor 6, sequence (P50406 whole entry): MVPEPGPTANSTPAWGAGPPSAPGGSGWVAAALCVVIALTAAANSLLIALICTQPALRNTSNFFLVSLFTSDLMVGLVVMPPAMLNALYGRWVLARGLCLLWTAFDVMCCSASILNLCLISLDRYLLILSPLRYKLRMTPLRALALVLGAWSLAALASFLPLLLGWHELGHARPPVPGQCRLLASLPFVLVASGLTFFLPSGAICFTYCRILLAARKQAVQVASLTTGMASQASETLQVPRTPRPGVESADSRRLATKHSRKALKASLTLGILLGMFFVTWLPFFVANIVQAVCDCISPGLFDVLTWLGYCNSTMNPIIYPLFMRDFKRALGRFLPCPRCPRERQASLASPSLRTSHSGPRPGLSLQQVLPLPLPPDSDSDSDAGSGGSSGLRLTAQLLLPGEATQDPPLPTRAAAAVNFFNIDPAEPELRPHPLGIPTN

[11] = DRUGMATRIX: Glutamate, NMDA, Phencyclidine radioligand binding (ligand: [3H] TCP); assay type: cell membranes, Rattus norvegicus, Wistar, Cerebral cortex, Membrane; details: Not Active = under 50% inhibition at 10 µM
[12] = biological target: T3, 5-hydroxytryptamine receptor 1A (Rattus norvegicus, UniProt P19327); assay type: cell membranes, CHO-K1, Membrane; details: cho-k1; also: in other assays of this panel Not Active means under 50% inhibition at 10 µM
T3 sequence (P19327 whole entry): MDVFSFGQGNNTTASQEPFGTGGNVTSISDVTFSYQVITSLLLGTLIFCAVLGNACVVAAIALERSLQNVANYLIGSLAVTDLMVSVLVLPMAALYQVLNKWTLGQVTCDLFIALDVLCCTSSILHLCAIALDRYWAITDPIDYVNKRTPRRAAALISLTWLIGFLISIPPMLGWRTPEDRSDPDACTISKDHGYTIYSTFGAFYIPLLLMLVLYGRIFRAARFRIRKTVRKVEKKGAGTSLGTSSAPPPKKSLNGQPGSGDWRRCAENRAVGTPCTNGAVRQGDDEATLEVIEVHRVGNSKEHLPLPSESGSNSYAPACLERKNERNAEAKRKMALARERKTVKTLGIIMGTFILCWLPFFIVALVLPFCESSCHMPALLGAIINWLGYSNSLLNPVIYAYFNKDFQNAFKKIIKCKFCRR

CC(=O)S[C@@H]1CC2=CC(=O)CC[C@]2(C)[C@H]2CC[C@@]3(C)[C@@H](CC[C@@]34CCC(=O)O4)[C@H]12 [SPIRONOLACTONE]
IC50 [1]: Not Active
Ki [1]: Not Active
IC50 [2]: Not Active
Ki [2]: Not Active
IC50 [3]: Not Active
IC50 (Substance-K receptor): Not Active
IC50 (Glycine receptor): Not Active
IC50 [4]: Not Active
Ki [4]: Not Active
IC50 [5]: Not Active
Ki [5]: Not Active
IC50 [6]: Not Active
IC50 [7]: Not Active
Ki [7]: Not Active
IC50 [8]: Not Active
IC50 [9]: Not Active
Ki [9]: Not Active
IC50 [10]: Not Active
IC50 [11]: Not Active
Ki [11]: Not Active
IC50 [12]: Not Active

CC(C)(C)NCC(O)c1ccc(O)c(CO)c1 (centres undefined) [ALBUTEROL]
IC50 [1]: Not Active
Ki [1]: Not Active
IC50 [2]: Not Active
Ki [2]: Not Active
IC50 [3]: Not Active
IC50 (Substance-K receptor): Not Active
IC50 (Glycine receptor): Not Active
IC50 [4]: Not Active
Ki [4]: Not Active
IC50 [5]: Not Active
Ki [5]: Not Active
IC50 [6]: Not Active
IC50 [7]: Not Active
Ki [7]: Not Active
IC50 [8]: Not Active
IC50 [9]: Not Active
Ki [9]: Not Active
IC50 [10]: Not Active
IC50 [11]: Not Active
Ki [11]: Not Active
IC50 [12]: Not Active

CO[C@@H]1[C@@H](O[C@@H]2O[C@H](C)[C@@H](O[C@H]3C[C@@](C)(O)[C@@H](OC(=O)CC(C)C)[C@H](C)O3)[C@H](N(C)C)[C@H]2O)[C@@H](CC=O)C[C@@H](C)[C@@H](O)/C=C/C=C/C[C@@H](C)OC(=O)C[C@H]1O [KITASAMYCIN]
IC50 [1]: Not Active
Ki [1]: Not Active
IC50 [2]: Not Active
Ki [2]: Not Active
IC50 [3]: Not Active
IC50 (Substance-K receptor): Not Active
IC50 (Glycine receptor): Not Active
IC50 [4]: Not Active
Ki [4]: Not Active
IC50 [5]: Not Active
Ki [5]: Not Active
IC50 [6]: Not Active
IC50 [7]: Not Active
Ki [7]: Not Active
IC50 [8]: Not Active
IC50 [9]: Not Active
Ki [9]: Not Active
IC50 [10]: Not Active
IC50 [11]: Not Active
Ki [11]: Not Active
IC50 [12]: Not Active

Clc1ccc(C(c2ccccc2Cl)C(Cl)Cl)cc1 (centres undefined) [MITOTANE]
IC50 [1]: Not Active
Ki [1]: Not Active
IC50 [2]: Not Active
Ki [2]: Not Active
IC50 [3]: Not Active
IC50 (Substance-K receptor): Not Active
IC50 (Glycine receptor): Not Active
IC50 [4]: Not Active
Ki [4]: Not Active
IC50 [5]: Not Active
Ki [5]: Not Active
IC50 [6]: Not Active
IC50 [7]: Not Active
Ki [7]: Not Active
IC50 [8]: Not Active
IC50 [9]: Not Active
Ki [9]: Not Active
pIC50 ([10]; read-out: IC50): 5.85
pKi ([10]; read-out: Ki): 6.19
IC50 [11]: Not Active
Ki [11]: Not Active
IC50 [12]: Not Active

C=CC[C@@H]1/C=C(\C)C[C@H](C)C[C@H](OC)[C@H]2O[C@@](O)(C(=O)C(=O)N3CCCC[C@H]3C(=O)O[C@H](/C(C)=C/[C@@H]3CC[C@@H](O)[C@H](OC)C3)[C@H](C)[C@@H](O)CC1=O)[C@H](C)C[C@@H]2OC [TACROLIMUS ANHYDROUS]
IC50 [1]: Not Active
Ki [1]: Not Active
IC50 [2]: Not Active
Ki [2]: Not Active
IC50 [3]: Not Active
IC50 (Substance-K receptor): Not Active
IC50 (Glycine receptor): Not Active
IC50 [4]: Not Active
Ki [4]: Not Active
IC50 [5]: Not Active
Ki [5]: Not Active
IC50 [6]: Not Active
IC50 [7]: Not Active
Ki [7]: Not Active
IC50 [8]: Not Active
IC50 [9]: Not Active
Ki [9]: Not Active
IC50 [10]: Not Active
IC50 [11]: Not Active
Ki [11]: Not Active
IC50 [12]: Not Active

COc1ccc(C(CN(C)C)C2(O)CCCCC2)cc1 (centres undefined) [VENLAFAXINE]
IC50 [1]: Not Active
Ki [1]: Not Active
IC50 [2]: Not Active
Ki [2]: Not Active
IC50 [3]: Not Active
IC50 (Substance-K receptor): Not Active
IC50 (Glycine receptor): Not Active
IC50 [4]: Not Active
Ki [4]: Not Active
IC50 [5]: Not Active
Ki [5]: Not Active
IC50 [6]: Not Active
IC50 [7]: Not Active
Ki [7]: Not Active
IC50 [8]: Not Active
IC50 [9]: Not Active
Ki [9]: Not Active
IC50 [10]: Not Active
IC50 [11]: Not Active
Ki [11]: Not Active
IC50 [12]: Not Active

CC(C)(C)NCC(O)c1cc(O)cc(O)c1 (centres undefined) [TERBUTALINE]
IC50 [1]: Not Active
Ki [1]: Not Active
IC50 [2]: Not Active
Ki [2]: Not Active
IC50 [3]: Not Active
IC50 (Substance-K receptor): Not Active
IC50 (Glycine receptor): Not Active
IC50 [4]: Not Active
Ki [4]: Not Active
IC50 [5]: Not Active
Ki [5]: Not Active
IC50 [6]: Not Active
IC50 [7]: Not Active
Ki [7]: Not Active
IC50 [8]: Not Active
IC50 [9]: Not Active
Ki [9]: Not Active
IC50 [10]: Not Active
IC50 [11]: Not Active
Ki [11]: Not Active
IC50 [12]: Not Active

Cc1cc(NS(=O)(=O)c2ccc(N)cc2)no1 [SULFAMETHOXAZOLE]
IC50 [1]: Not Active
Ki [1]: Not Active
IC50 [2]: Not Active
Ki [2]: Not Active
IC50 [3]: Not Active
IC50 (Substance-K receptor): Not Active
IC50 (Glycine receptor): Not Active
IC50 [4]: Not Active
Ki [4]: Not Active
IC50 [5]: Not Active
Ki [5]: Not Active
IC50 [6]: Not Active
IC50 [7]: Not Active
Ki [7]: Not Active
IC50 [8]: Not Active
IC50 [9]: Not Active
Ki [9]: Not Active
IC50 [10]: Not Active
IC50 [11]: Not Active
Ki [11]: Not Active
IC50 [12]: Not Active
